Reference: PubChem BioAssay (NCI)
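Five concentrations, 48 hours, 96-well plates. Here, GI50 denotes the concentration required for 50% inhibition of growth. At the TGI there is no net growth.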

Key:
Test in all cases: inhibition of tumour cell growth, NCI panel, 48 h
[1] = system: SF-295 CNS
[2] = system: RPMI-8226 leukemia
[3] = system: HT29 colon
[4] = system: IGROV1 ovarian
[5] = system: OVCAR-5 ovarian
[6] = system: LOX IMVI melanoma
[7] = system: TK-10 renal
[8] = system: SN12C renal
[9] = system: K-562 leukemia
[10] = system: A498 renal

| Compound | GI50 [1] | TGI [1] | GI50 [2] | TGI [2] | GI50 [3] | TGI [3] | GI50 [4] | TGI [4] | GI50 [5] | TGI [5] | GI50 [6] | TGI [6] | GI50 [7] | TGI [7] | GI50 [8] | TGI [8] | GI50 [9] | TGI [9] | GI50 [10] | TGI [10] |
| --- | --- | --- | --- | --- | --- | --- | --- | --- | --- | --- | --- | --- | --- | --- | --- | --- | --- | --- | --- | --- |
| COc1ccc2[nH]c(Cl)c(/C=C3/C(=O)N(C)c4ccccc43)c2c1 | > 100 µM | > 100 µM | > 100 µM | > 100 µM | > 100 µM | > 100 µM | > 100 µM | > 100 µM | > 100 µM | > 100 µM | > 100000 nM | > 100 µM | > 100 µM | > 100 µM | – | – | – | – | – | – |
| O=C(C(Br)Br)C(Br)C(Br)c1ccccc1 (centres undefined) | – | – | 1.54 µM | 4.36 µM | 2.5 µM | 5.39 µM | 3.56 µM | 11.5 µM | 6.6 µM | 22.2 µM | 1490 nM | 3.61 µM | 2.47 µM | 4.78 µM | 12.7 µM | 33.2 µM | 1.89 µM | 5.37 µM | 19.7 µM | 35 µM |
| CCOC(=O)CC1=CSC2=NCCN12 | – | > 100 µM | – | – | – | > 100 µM | – | > 100 µM | – | > 100 µM | – | > 100 µM | – | > 100 µM | – | > 100 µM | – | > 100 µM | – | > 100 µM |
| O=C(Nc1ccc(Cl)cc1)c1cc2ccccc2cc1O | 2.96 µM | > 100 µM | – | – | 4.09 µM | > 100 µM | 2.19 µM | > 100 µM | 4.07 µM | > 100 µM | 2360 nM | 18.2 µM | 3.93 µM | > 100 µM | 2.46 µM | > 100 µM | 3.02 µM | > 100 µM | 2.23 µM | 8.37 µM |
| CCOC(=O)C(=O)Nc1c(N(CC)CC)n2ccccc2nc1=O | – | – | – | > 100 µM | – | > 100 µM | – | > 100 µM | – | > 100 µM | – | – | – | – | – | > 100 µM | – | > 100 µM | – | > 100 µM |
| CN(C)CCCNC(=O)c1cc(NC(=O)c2cc(NC(=O)c3cc(NC(=O)CCc4c[nH]c5ccccc45)cn3C)cn2C)cn1C | > 100 µM | > 100 µM | > 100 µM | > 100 µM | 30.7 µM | > 100 µM | > 100 µM | > 100 µM | > 100 µM | > 100 µM | > 100000 nM | > 100 µM | > 100 µM | > 100 µM | > 100 µM | > 100 µM | > 100 µM | > 100 µM | – | – |
| O=C1C(=O)N(c2ccc(Cl)c(Cl)c2)C(=O)C(=O)C1c1nc2ccccc2o1 | – | > 100 µM | – | 66.5 µM | – | > 100 µM | – | > 100 µM | – | > 100 µM | – | > 100 µM | – | > 100 µM | – | > 100 µM | – | > 100 µM | – | – |
| CCOC(=O)c1ccc(N2C(=O)/C(=C\OC)c3ccccc3C2=O)cc1 | – | > 100 µM | – | > 100 µM | – | > 100 µM | – | > 100 µM | – | > 100 µM | – | – | – | > 100 µM | – | > 100 µM | – | > 100 µM | – | – |
| ON=C1CCC(c2ccccc2)CC1 (centres undefined) | – | > 100 µM | – | – | – | > 100 µM | – | > 100 µM | – | > 100 µM | – | > 100 µM | – | > 100 µM | – | > 100 µM | – | > 100 µM | – | > 100 µM |
| CC(C(=O)Oc1ccc2ccccc2c1-c1c(O)ccc2ccccc12)c1ccccc1 (centres undefined) | – | 25.6 µM | – | 57.6 µM | – | 28.8 µM | – | 34.9 µM | – | 31 µM | – | – | – | 32.8 µM | – | 29.7 µM | – | 86.7 µM | – | 29.4 µM |
